Reference: US20040110802A1, “Antibacterial benzoic acid derivatives” (priority 2002, published 2004)
Converted amounts (≈) assume the structure as drawn.

System: SAUR 9218
Test: MIC Test Method, standard agar dilution
Assay type: cell-based
Conditions: agar dilution, Mueller Hinton agar, incubated overnight at 35° C.; lowest concentration that inhibits visible growth
In short: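 MIC (μg/ml) was read as the lowest drug level without visible growth of SAUR 9218 after overnight incubation at 35 °C. Inocula of about 10^4 to 10^5 cells per spot were applied to Mueller Hinton agar containing 2-fold serial compound dilutions.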

SAUR 9218 MIC [µg/mL]	SMILES
0.5	O=C(Nc1ccc(Cl)cc1C(=O)O)c1cc(-c2ccccc2)on1 [drawing 1111]

Same assay, conditions: agar dilution, Mueller Hinton agar, incubated overnight at 35° C.; lowest concentration that inhibits visible growth; read-out: SAUR 9218 MIC

MIC [µg/mL]	SMILES
128 (≈ 253 µM)	O=C(Nc1ccc(Br)cc1C(=O)O)c1cnc(CC(O)[C@H]2COC3(CCCCC3)O2)cn1 (stereo partly shown)
64 (≈ 139 µM)	CCCCN(CC#N)S(=O)(=O)c1cc(C(=O)Nc2ccc(C#N)cc2C(=O)O)sc1C
1 (≈ 2.9 µM)	C=CCn1c(C(=O)Nc2ccc(C#N)cc2C(=O)O)cc2ccccc21
1 (≈ 2.65 µM)	O=C(O)c1cc(Br)ccc1NC(=O)c1nsc2ccccc12
0.5 (≈ 1.15 µM)	Cn1c(C(=O)Nc2ccc(C#N)cc2C(=O)O)cc2cccc(OCC3CCCCO3)c21 (stereo not shown)
0.25 (≈ 0.635 µM)	COc1ccc(CNc2cnc(C(=O)Nc3ccc(N)cc3C(=O)O)cn2)cc1
> 128	O=C(Nc1ccc(Br)cc1C(=O)O)C1=NS(=O)(=O)c2ccccc21
> 128	O=C(O)c1cc(Br)ccc1NC(=O)c1cccnc1Cl
0.25 (≈ 0.519 µM)	N#Cc1ccc(NC(=O)c2ccc3c(c2)S(=O)(=O)N(c2ccc(Cl)cc2)CC3)c(C(=O)O)c1
16 (≈ 40.7 µM)	N#Cc1ccc(NC(=O)c2cc(-c3ccccc3)nc3ccccc23)c(C(=O)O)c1
0.25 (≈ 0.746 µM)	COc1cccc2[nH]c(C(=O)Nc3ccc(C#N)cc3C(=O)O)cc12
0.125 (≈ 0.275 µM)	N#Cc1ccc(NC(=O)c2cc(-c3ccccc3OCCCCCCl)on2)c(C(=O)O)c1
32 (≈ 64.3 µM)	Cc1sc(C(=O)Nc2ccc(C#N)cc2C(=O)O)cc1S(=O)(=O)N(Cc1ccccc1)C(C)C
0.125 (≈ 0.31 µM)	Cn1c(C(=O)Nc2ccc(C#N)cc2C(=O)O)cc2ccc(OCC3CCC3)cc21
0.125 (≈ 0.333 µM)	N#Cc1ccc(NC(=O)c2cc(CCCc3ccccc3)on2)c(C(=O)O)c1
0.03 (≈ 0.0581 µM)	O=C(O)c1cc(Br)ccc1NC(=O)c1noc2ccc(S(=O)(=O)Nc3ccccc3)cc12
0.25 (≈ 0.693 µM)	O=C(Nc1ccc(Cl)cc1C(=O)O)c1cc(-c2ccccc2F)on1
1 (≈ 2.49 µM)	N#Cc1ccc(NC(=O)c2ncc(-c3ccccc3C(F)(F)F)o2)c(C(=O)O)c1
1 (≈ 2.04 µM)	O=C(Nc1ccc(I)cc1C(=O)O)c1cnc(SCc2ccccc2)cn1
0.03 (≈ 0.0574 µM)	N#Cc1ccc(NC(=O)c2noc3ccc(S(=O)(=O)N4CCc5cc(Cl)ccc54)cc23)c(C(=O)O)c1
0.25 (≈ 0.714 µM)	CN(C)c1ccc2onc(C(=O)Nc3ccc(C#N)cc3C(=O)O)c2c1
0.5 (≈ 0.944 µM)	Cn1c(C(=O)Nc2ccc(C#N)cc2C(=O)O)cc2cccc(OCC(O)COCCOc3ccccc3)c21 (stereo not shown)
0.125 (≈ 0.326 µM)	CCCCCCSc1ccc(C(=O)Nc2ccc(C#N)cc2C(=O)O)cn1
0.25 (≈ 0.529 µM)	N#Cc1ccc(NC(=O)c2cc3cccc(NC(=O)Cc4ccccc4Cl)c3[nH]2)c(C(=O)O)c1

MIC [µg/mL]	SMILES
0.25 (≈ 0.571 µM)	CCOCC(O)COc1cccc2cc(C(=O)Nc3ccc(C#N)cc3C(=O)O)n(C)c12 (stereo not shown)
0.25 (≈ 0.605 µM)	CC(=O)OCCCCSc1ccc(C(=O)Nc2ccc(C#N)cc2C(=O)O)cn1
8 (≈ 19.4 µM)	N#Cc1ccc(-c2cnc(C(=O)Nc3ccc(Br)cc3C(=O)O)o2)cc1
0.125 (≈ 0.302 µM)	CN(C)S(=O)(=O)c1ccc2onc(C(=O)Nc3ccc(C#N)cc3C(=O)O)c2c1
0.125 (≈ 0.338 µM)	CCCCCSc1ccc(C(=O)Nc2ccc(C#N)cc2C(=O)O)cn1
> 128	Cc1cc(C(=O)Nc2ccc(Br)cc2C(=O)O)c(C)o1
0.5 (≈ 1.07 µM)	CCC(C(=O)Nc1cccc2cc(C(=O)Nc3ccc(C#N)cc3C(=O)O)[nH]c12)c1ccccc1 (stereo not shown)
16 (≈ 25.9 µM)	O=C(Nc1ccc(Br)cc1C(=O)O)c1csc(S(=O)(=O)N2CCN(c3cccc(C(F)(F)F)c3)CC2)c1
1 (≈ 3.05 µM)	CCSc1cncc(C(=O)Nc2ccc(C#N)cc2C(=O)O)c1
2 (≈ 5.13 µM)	Cn1cccc1-c1cnc(C(=O)Nc2ccc(Br)cc2C(=O)O)o1
0.5 (≈ 1.27 µM)	CCCCCCSc1cnc(C(=O)Nc2ccc(Cl)cc2C(=O)O)cn1
32 (≈ 58.5 µM)	Cc1cc(NS(=O)(=O)c2ccc(-c3cc(C(=O)Nc4ccc(Br)cc4C(=O)O)no3)cc2)no1
16 (≈ 31.9 µM)	N#Cc1ccc(NC(=O)c2cc(-c3ccccc3Oc3ccc(-c4ccccc4)cc3)on2)c(C(=O)O)c1
0.5 (≈ 0.981 µM)	Cc1nc(C)c(S(=O)(=O)Nc2cccc3cc(C(=O)Nc4ccc(C#N)cc4C(=O)O)n(C)c23)s1
0.125 (≈ 0.243 µM)	Cn1c(C(=O)Nc2ccc(Br)cc2C(=O)O)cc2cccc(S(=O)(=O)c3ccccc3)c21
0.5 (≈ 1.22 µM)	Cc1ccccc1-c1ccc2cc(C(=O)Nc3ccc(C#N)cc3C(=O)O)n(C)c2c1
32 (≈ 92.4 µM)	N#Cc1ccc(NC(=O)c2cccc(Br)n2)c(C(=O)O)c1
1 (≈ 1.91 µM)	CN(c1ccc(Cl)cc1)S(=O)(=O)c1cncc(C(=O)Nc2ccc(Br)cc2C(=O)O)c1
2 (≈ 4.78 µM)	CC(C)(C)CC(=O)Nc1cccc2cc(C(=O)Nc3ccc(C#N)cc3C(=O)O)[nH]c12
8 (≈ 16 µM)	CC12CCC(C(=O)Nc3cccc4cc(C(=O)Nc5ccc(C#N)cc5C(=O)O)[nH]c34)(OC1=O)C2(C)C (stereo not shown)
1 (≈ 3.49 µM)	Cc1ccsc1C(=O)Nc1ccc(C#N)cc1C(=O)O
1 (≈ 2.75 µM)	COc1ccccc1-c1cnc(C(=O)Nc2ccc(C#N)cc2C(=O)O)o1
16 (≈ 46.6 µM)	N#Cc1ccc(NC(=O)c2cncc(-c3ccccc3)c2)c(C(=O)O)c1
0.125 (≈ 0.31 µM)	N#Cc1ccc(NC(=O)c2cc(-c3ccccc3OC3CCC3)on2)c(C(=O)O)c1

MIC [µg/mL]	SMILES
1 (≈ 2.61 µM)	N#Cc1ccc(NC(=O)c2ncc(-c3cccc(Cl)c3)s2)c(C(=O)O)c1
8 (≈ 16.5 µM)	CCCN(CCC)S(=O)(=O)c1ccc(C(=O)Nc2ccc(Br)cc2C(=O)O)cn1
1 (≈ 2.93 µM)	N#Cc1ccc(NC(=O)c2noc3cc(Cl)ccc23)c(C(=O)O)c1
0.125 (≈ 0.255 µM)	Cn1c(C(=O)Nc2ccc(C#N)cc2C(=O)O)cc2cccc(N(S(C)(=O)=O)S(C)(=O)=O)c21
1	COCC(C)NCC(O)COc1cccc2cc(C(=O)Nc3ccc(C#N)cc3C(=O)O)n(C)c12.Cl (stereo not shown)
2 (≈ 4.95 µM)	N#Cc1ccc(NC(=O)c2noc3ccc(NC(=O)C4CCC4)cc23)c(C(=O)O)c1
1 (≈ 2.17 µM)	N#Cc1ccc(NC(=O)c2cc3cccc(NC(=O)c4ccc(F)cc4F)c3[nH]2)c(C(=O)O)c1
0.5 (≈ 0.999 µM)	N#Cc1ccc(NC(=O)c2cc3cccc(NC(=O)c4ccc(-c5ccccc5)cc4)c3[nH]2)c(C(=O)O)c1
0.5 (≈ 1.14 µM)	CC(=O)Nc1ccccc1-c1ccc2c(C(=O)Nc3ccc(C#N)cc3C(=O)O)noc2c1
0.25 (≈ 0.72 µM)	Cc1ccccc1-c1cc(C(=O)Nc2ccc(C#N)cc2C(=O)O)no1
0.5 (≈ 1.1 µM)	O=C(Nc1ccc(Br)cc1C(=O)O)c1cc(-c2ccccc2C(F)(F)F)on1
32 (≈ 54.7 µM)	O=C(Nc1ccc(Br)cc1C(=O)O)c1csc(S(=O)(=O)N2CCN(c3ccc(Cl)cc3)CC2)c1
> 128	COc1ccc(C(=O)Nc2ccc(C#N)cc2C(=O)O)c(OC)n1
16 (≈ 38.1 µM)	Cc1sc(C(=O)Nc2ccc(C#N)cc2C(=O)O)cc1S(=O)(=O)N1CCCC1
> 128	Cn1c(C(=O)Nc2ccc(C#N)cc2C(=O)O)cc2cccc(NC(=O)c3ccc(N=[N+]=[N-])c(I)c3)c21
2 (≈ 6.26 µM)	Cc1cccc2cc(C(=O)Nc3ccc(C#N)cc3C(=O)O)[nH]c12
0.25 (≈ 0.692 µM)	O=C(O)c1cc(Br)ccc1NC(=O)c1noc2ccccc12
> 128	COc1ncc(C#Cc2cncc(C(=O)Nc3ccc(C#N)cc3C(=O)O)c2)c(OC)n1
0.25 (≈ 0.642 µM)	Cn1c(C(=O)Nc2ccc(C#N)cc2C(=O)O)cc2ccc(OCC3CC3)cc21
128 (≈ 246 µM)	COC(Cc1cnc(C(=O)Nc2ccc(Br)cc2C(=O)O)cn1)[C@H]1COC2(CCCCC2)O1 (stereo partly shown)
0.125 (≈ 0.337 µM)	CCCCCSc1cnc(C(=O)Nc2ccc(C#N)cc2C(=O)O)cn1
0.25 (≈ 0.493 µM)	N#Cc1ccc(NC(=O)c2cc3cccc(NC(=O)Cc4ccc(Cl)cc4Cl)c3[nH]2)c(C(=O)O)c1
2 (≈ 4.49 µM)	CC(C)CN1C(=O)c2ccc(C(=O)Nc3ccc(Br)cc3C(=O)O)cc2C1=O
4 (≈ 11.1 µM)	O=C(O)c1cc(Br)ccc1NC(=O)c1c[nH]c2ccccc12

MIC [µg/mL]	SMILES
0.5 (≈ 0.989 µM)	Cc1noc(-c2ccccc2)c1C(=O)Nc1cccc2cc(C(=O)Nc3ccc(C#N)cc3C(=O)O)[nH]c12
32 (≈ 80.1 µM)	CC(C)(C)c1ccc(-c2cncc(C(=O)Nc3ccc(C#N)cc3C(=O)O)c2)cc1
> 128	O=C(Nc1ccc(Br)cc1C(=O)O)c1ccco1
1 (≈ 2.66 µM)	CC(=O)Nc1ccc2cc(C(=O)Nc3ccc(C#N)cc3C(=O)O)n(C)c2c1
0.5 (≈ 1.19 µM)	CC(C)NC(=O)Nc1ccc2cc(C(=O)Nc3ccc(C#N)cc3C(=O)O)n(C)c2c1
0.5 (≈ 1.21 µM)	Cn1c(C(=O)Nc2ccc(C#N)cc2C(=O)O)cc2cccc(NS(C)(=O)=O)c21
8 (≈ 17.8 µM)	N#Cc1ccc(NC(=O)c2cc3cccc(N4C(=O)c5ccccc5C4=O)c3[nH]2)c(C(=O)O)c1
0.25 (≈ 0.701 µM)	CC(C)CSc1cnc(C(=O)Nc2ccc(C#N)cc2C(=O)O)cn1
> 128	N#Cc1ccc(NC(=O)c2ccsc2)c(C(=O)O)c1
1 (≈ 2.53 µM)	N#Cc1ccc(NC(=O)c2cnc(SCc3ccccc3)s2)c(C(=O)O)c1
0.5 (≈ 0.872 µM)	N#Cc1ccc(NC(=O)c2cc3cccc(NC(=O)c4cccc(S(=O)(=O)N5CCOCC5)c4)c3[nH]2)c(C(=O)O)c1
4 (≈ 8.78 µM)	O=C(O)c1cc(Br)ccc1NC(=O)c1cc2ccccc2n1CC1CCCCC1
2 (≈ 4.44 µM)	N#Cc1ccc(NC(=O)c2cc3cccc4c3n2CC/C4=N\Oc2ccccc2)c(C(=O)O)c1
> 128	Cc1cc(C(=O)Nc2ccc(C#N)cc2C(=O)O)c(C)o1
4 (≈ 9.7 µM)	N#Cc1cccc(-c2cnc(C(=O)Nc3ccc(Br)cc3C(=O)O)o2)c1
> 128	N#Cc1ccc(NC(=O)c2cc3cccc(NC(=O)c4csc(SCc5ccccc5)n4)c3[nH]2)c(C(=O)O)c1
0.5 (≈ 1.48 µM)	COc1ccc2c(C(=O)Nc3ccc(C#N)cc3C(=O)O)noc2c1
0.125 (≈ 0.321 µM)	C=CCOc1ccccc1-c1cc(C(=O)Nc2ccc(C#N)cc2C(=O)O)no1
0.25 (≈ 0.71 µM)	N#Cc1ccc(NC(=O)c2noc3ccc([N+](=O)[O-])cc23)c(C(=O)O)c1
> 128	N#Cc1ccc(NC(=O)c2cc(-c3ccccc3Oc3ccccc3-c3ccccc3)on2)c(C(=O)O)c1
1 (≈ 3.09 µM)	N#Cc1ccc(NC(=O)c2noc3cc(O)ccc23)c(C(=O)O)c1
0.125 (≈ 0.331 µM)	CC(C)Oc1cccc2cc(C(=O)Nc3ccc(C#N)cc3C(=O)O)n(C)c12
0.25 (≈ 0.703 µM)	CCCCSc1ccc(C(=O)Nc2ccc(C#N)cc2C(=O)O)cn1
2 (≈ 4.8 µM)	N#Cc1ccc(NC(=O)c2cc3cccc(NC(=O)C4CCCC4)c3[nH]2)c(C(=O)O)c1
